Measurements: patent publication US5852011A, “Benzimidazole derivatives” (Mitsui Chemicals, Inc., priority 1994, dated 1998)
Structures can show the parent of a compound that is named as a salt. Where two headings read alike, the source gives them in different places.

Tested on: mouse B16 melanoma cells
Assay: In vitro inhibition of proliferation of tumored cells, mouse B16 melanoma (Test 2)
Type: cell-based
Conditions: for IC50: Mus musculus, B16, 72 h, read-out: 50% Inhibition
Description: A description will next be made of antitumor activities of these compounds. Their antitumor activities were determined by measuring their in vitro inhibition of proliferation of tumored cells. Namely, mouse B16 melanoma cells were spread over a 96-well culture plate. One day later, each drug was applied. The melanoma cells were then incubated for 3 days in 5% CO2 at 37° C. Following the method reported in Cancer Res., 48, 589-601(1988), the concentration of the drug required to induce 50% inhibition on the proliferation was determined. As a comparative example, the results obtained from the application of distamycin are also shown.

[1] = 3 days in 5% CO2 at 37° C., 96-well plate

Structure (SMILES) | 50% Inhibition [1] | other results
Cn1cc(NC(=O)c2ccc(CN(CCCl)CCCl)cc2)cc1-c1nc2cc(C(=O)NCCC(=N)N)ccc2[nH]1 [Compound 14, 1H-2-[4-[4-[N,N-Bis(2-chloroethyl)aminomethyl]benzoylamino]-1-methylpyrrol-2-yl]benzimidazole-5-(N-(2-amidinoethyl)]carboxamide hydrochloride] | 0.57 µg/mL | –
Cn1cc(NC(=O)CC[S+](C)C)cc1-c1nc2cc(C(=O)Nc3ccc(N(CCCl)CCCl)c(C(F)(F)F)c3)ccc2[nH]1 [Compound 1077, 2-[N-[1-Methyl-2-[5-[N-[3-trifluoromethyl-4-[N,N-bis(2-chloroethyl)amino]phenyl]]carbamoyl]-1H-benzimidazol-2-yl]pyrrol-4-yl]carbamoylethyl-dimethylsulfonium chloride] | 0.29 µg/mL | –
CCN(CCCl)c1cccc(NC(=O)c2ccc3[nH]c(-c4cc(NC(=O)CNC(=N)N)cn4C)nc3c2)c1 [Compound 1049, 1H-2-[1-Methyl-4-(guanidinoacetylamino)pyrrol-2-yl]benzimidazol-5-[N-[3-[N-ethyl,N-(2-chloroethyl)amino]phenyl]]carboxamide hydrochloride] | – | IC50: 0.274 mg/L
Cn1cc(NC(=O)c2ccccc2)cc1-c1nc2cc(C(=O)NCCC(=N)N)ccc2[nH]1 [Compound 326, 1H-2-(4-Benzoylamino-1-methylpyrrol-2-yl)benzimidazole-5-[N-(2-amidinoethyl)]carboxamide hydrochloride] | – | IC50 [1]: 12 mg/L
Cn1cc(NC(=O)CC[S+](C)C)cc1-c1nc2cc(C(=O)Nc3ccc(N(CCCl)CCCl)c(Cl)c3)ccc2[nH]1 [Compound 1072, 2-[N-[1-Methyl-2-[5-[N-[3-chloro-4-[N,N-bis(2-chloroethyl)amino]phenyl]]carbamoyl]-1H-benzimidazol-2-yl]pyrrol-4-yl]carbamoylethyl-dimethylsulfonium chloride] | 0.51 µg/mL | –
Cn1cc(NC(=O)CNC(=N)N)cc1-c1nc2cc(C(=O)NCCCc3ccc(N(CCCl)CCCl)cc3)ccc2[nH]1 [Compound 1004, 1H-2-[4-(2-Guanidinoacetylamino)-1-methylpyrrol-2-yl]benzimidazole-5-[N-[3-[4-[N,N-bis(2-chloroethyl)amino]phenyl]propyl]]carboxamide hydrochloride] | 0.047 µg/mL | –
CN(C)CCNC(=O)c1cc(N(CCCl)CCCl)ccc1NC(=O)c1ccc2[nH]c(-c3cc(NC(=O)CNC(=N)N)cn3C)nc2c1 [Compound 1042, 1H-2-[1-Methyl-4-(guanidinoacetylamino)pyrrol-2-yl]benzimidazole-5-[N-[2-[N-[(N,N-dimethylamino)ethyl]carboxamido]-4-[N,N-bis(2-chloroethyl)amino]phenyl]]carboxamide dihydrochloride] | 3.49 µg/mL | –
Cn1cc(NC(=O)c2ccc[nH]2)cc1-c1nc2cc(C(=O)Nc3ccc(N(CCCl)CCCl)cc3)ccc2[nH]1 [Compound 1480, 1H-2-[1-Methyl-4-(2-pyrrolcarboxamido)pyrrol-2-yl]benzimidazole-5-[N-[4-[N,N-bis(2-chloroethyl)amino]phenyl]]carboxamide hydrochloride] | 0.16 µg/mL | –
Cn1cc(NC(=O)c2cccc(N(CCCl)CCCl)c2)cc1-c1nc2cc(C(=O)NCCC(=N)N)ccc2[nH]1 [Compound 15, 1H-2-[4-[3-[N,N-bis(2-chloroethyl)amino]benzoylamino]-1-methylpyrrol-2-yl]benzimidazole-5-[N-(2-amidinoethyl)]carboxamide hydrochloride] | 0.057 µg/mL | –
N=C(N)CCNC(=O)c1ccc2[nH]c(-c3csc(NC(=O)CCCc4ccc(N(CCCl)CCCl)cc4)c3)nc2c1 [Compound 424, 1H-2-[2-[4-[4-[N,N-Bis(2-chloroethyl)amino]phenyl]butyrylamino]thiophen-4-yl]benzimidazole-5-[N-(2-amidinoethyl)]carboxamide hydrochloride] | 0.08 µg/mL | –
Cn1cc(NC(=O)c2ccc(N(CCBr)CCBr)cc2)cc1-c1nc2cc(C(=O)NCCC(=N)N)ccc2[nH]1 [Compound 260, 1H-2-[4-[4-[N,N-Bis(2-bromoethyl)amino]benzoylamino]-1-methylpyrrol-2-yl]benzimidazole-5-[N-(2-amidinoethyl)]carboxamide hydrochloride] | 0.034 µg/mL | –
CSCCC(=O)Nc1cc(-c2nc3cc(C(=O)Nc4ccc(N(CCCl)CCCl)c(F)c4)ccc3[nH]2)n(C)c1 [Compound 1528, 1H-2-[1-Methyl-4-[3-(methylthio)propionylamino]pyrrol-2-yl]benzimidazole-5-[N-[3-fluoro-4-[N,N-bis(2-chloroethyl)amino]phenyl]]carboxamide] | 0.22 µg/mL | –
Cn1cc(NC(=O)c2ncc[nH]2)cc1-c1nc2cc(C(=O)Nc3ccc(N(CCCl)CCCl)cc3)ccc2[nH]1 [Compound 1590, 1H-2-[1-Methyl-4-[2-imidazolylcarboxamido)-pyrrol-2-yl]benzimidazole-5-[N-[4-[N,N-bis(2-chloroethyl)amino]phenyl]]carboxamide] | 0.53 µg/mL | –
Cn1cc(NC(=O)c2ccc(N(CCCl)CCCl)cc2)cc1-c1nc2cc(C(=O)NCCN)ccc2[nH]1 [Compound 129, 1H-2-[4-[4-[N,N-Bis(2-chloroethyl)amino]benzoylamino]-1-methylpyrrol-2-yl]benzimidazole-5-[N-(2-aminoethyl)]carboxamide hydrochloride] | 0.18 µg/mL | –
Cn1cc(NC(=O)CCc2ccc(N(CCCl)CCCl)cc2)cc1-c1nc2cc(C(=O)NCCC(=N)N)ccc2[nH]1 [Compound 3, 1H-2-[4-[3-[4-[N,N-Bis(2-chloroethyl)amino]phenyl]propionylamino]-1-methylpyrrol-2-yl]benzimidazole-5-[N-(2-amidinoethyl)]carboxamide hydrochloride] | 0.019 µg/mL | –
N=C(N)CCNC(=O)c1ccc2[nH]c(-c3csc(NC(=O)c4ccccc4)c3)nc2c1 [Compound 438, 1H-2-(2-Benzoylaminothiophen-4-yl)benzimidazole-5-[N-(2-amidinoethyl)]carboxamide hydrochloride] | – | IC50 [1]: 42.8 mg/L
Cn1cc(NC(=O)CN2CCN(Cc3ccccc3)CC2)cc1-c1nc2cc(C(=O)Nc3ccc(N(CCCl)CCCl)cc3)ccc2[nH]1 [Compound 1585, 1H-2-[1-Methyl-4-[(4-benzylpiperazinyl)acetylamino]pyrrol-2-yl]benzimidazole-5-[N-[4-[N,N-bis(2-chloroethyl)amino]phenyl]]carboxamide] | 0.1 µg/mL | –
CCN(CCCl)c1ccc(NC(=O)c2ccc3[nH]c(-c4cc(NC(=O)CNC(=N)N)cn4C)nc3c2)cc1 [Compound 1048, 1H-2-[1-Methyl-4-(2-guanidinoacetylamino)pyrrol-2-yl]benzimidazol-5-[N-[4-[N-ethyl,N-(2-chloroethyl)amino]phenyl]]carboxamide dihydrochloride] | – | IC50: 5.58 mg/L
CSCCC(=O)Nc1cc(-c2nc3cc(C(=O)Nc4ccc(N(CCCl)CCCl)c(C)c4)ccc3[nH]2)n(C)c1 [Compound 1524, 1H-2-[1-Methyl-4-[3-(methylthio)propionylamino]pyrrol-2-yl]benzimidazole-5-[N-[3-methyl-4-[N,N-bis(2-chloroethyl)amino]phenyl]]carboxamide] | 0.6 µg/mL | –
